Experimental findings from patent EP4660184A1 (Eurofarma Laboratórios S.A., priority 2023, dated 2024) are described below.

Molecules are shown by their SMILES.

For test [1], the target named is T1, human sodium channels Nav 1.7 (Homo sapiens, UniProt Q15858).
T1 construct: expressed in transfected cells
Nature of the test: Automated whole-cell voltage-clamp (ScreenPatch 384P) sodium current block, Nav 1.7. In kind it is cell-based. Conditions: CHO cells stably expressing human Nav 1.7; inactivation step -40 mV for 8 seconds, test step 0 mV (TP1A); exposure at least five minutes; room temperature; mean if two or more assays; read-out: Nav1.7 IC50. In outline: (§1)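 CHO cells stably expressing human Nav1.7 or Nav1.8 were recorded by automated whole-cell clamp with ≥5 min compound exposure, eight concentrations, at room temperature, pH 7.4 external. From -100 mV, cells were held at -40 mV for 8 s, then -100 mV for 20 ms, then a test pulse at 10 mV (Nav1.8) or 0 mV (Nav1.7), at 0.05 Hz. Peak current % block was fitted to give IC50, averaged across assays.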

The target in test [2] is T2, human sodium channels Nav 1.8 (Homo sapiens, UniProt Q9Y5Y9).
T2 construct: expressed in transfected cells
Nature of the test: Automated whole-cell voltage-clamp (ScreenPatch 384P) sodium current block, Nav 1.8. Type of test: cell-based. Conditions: CHO cells stably expressing human Nav 1.8; inactivation step -40 mV for 8 seconds, test step 10 mV (TP1A); exposure at least five minutes; room temperature; mean if two or more assays; read-out: Nav1.8 IC50. In short, it runs like this:
as §1

T1 sequence (Q15858 whole entry): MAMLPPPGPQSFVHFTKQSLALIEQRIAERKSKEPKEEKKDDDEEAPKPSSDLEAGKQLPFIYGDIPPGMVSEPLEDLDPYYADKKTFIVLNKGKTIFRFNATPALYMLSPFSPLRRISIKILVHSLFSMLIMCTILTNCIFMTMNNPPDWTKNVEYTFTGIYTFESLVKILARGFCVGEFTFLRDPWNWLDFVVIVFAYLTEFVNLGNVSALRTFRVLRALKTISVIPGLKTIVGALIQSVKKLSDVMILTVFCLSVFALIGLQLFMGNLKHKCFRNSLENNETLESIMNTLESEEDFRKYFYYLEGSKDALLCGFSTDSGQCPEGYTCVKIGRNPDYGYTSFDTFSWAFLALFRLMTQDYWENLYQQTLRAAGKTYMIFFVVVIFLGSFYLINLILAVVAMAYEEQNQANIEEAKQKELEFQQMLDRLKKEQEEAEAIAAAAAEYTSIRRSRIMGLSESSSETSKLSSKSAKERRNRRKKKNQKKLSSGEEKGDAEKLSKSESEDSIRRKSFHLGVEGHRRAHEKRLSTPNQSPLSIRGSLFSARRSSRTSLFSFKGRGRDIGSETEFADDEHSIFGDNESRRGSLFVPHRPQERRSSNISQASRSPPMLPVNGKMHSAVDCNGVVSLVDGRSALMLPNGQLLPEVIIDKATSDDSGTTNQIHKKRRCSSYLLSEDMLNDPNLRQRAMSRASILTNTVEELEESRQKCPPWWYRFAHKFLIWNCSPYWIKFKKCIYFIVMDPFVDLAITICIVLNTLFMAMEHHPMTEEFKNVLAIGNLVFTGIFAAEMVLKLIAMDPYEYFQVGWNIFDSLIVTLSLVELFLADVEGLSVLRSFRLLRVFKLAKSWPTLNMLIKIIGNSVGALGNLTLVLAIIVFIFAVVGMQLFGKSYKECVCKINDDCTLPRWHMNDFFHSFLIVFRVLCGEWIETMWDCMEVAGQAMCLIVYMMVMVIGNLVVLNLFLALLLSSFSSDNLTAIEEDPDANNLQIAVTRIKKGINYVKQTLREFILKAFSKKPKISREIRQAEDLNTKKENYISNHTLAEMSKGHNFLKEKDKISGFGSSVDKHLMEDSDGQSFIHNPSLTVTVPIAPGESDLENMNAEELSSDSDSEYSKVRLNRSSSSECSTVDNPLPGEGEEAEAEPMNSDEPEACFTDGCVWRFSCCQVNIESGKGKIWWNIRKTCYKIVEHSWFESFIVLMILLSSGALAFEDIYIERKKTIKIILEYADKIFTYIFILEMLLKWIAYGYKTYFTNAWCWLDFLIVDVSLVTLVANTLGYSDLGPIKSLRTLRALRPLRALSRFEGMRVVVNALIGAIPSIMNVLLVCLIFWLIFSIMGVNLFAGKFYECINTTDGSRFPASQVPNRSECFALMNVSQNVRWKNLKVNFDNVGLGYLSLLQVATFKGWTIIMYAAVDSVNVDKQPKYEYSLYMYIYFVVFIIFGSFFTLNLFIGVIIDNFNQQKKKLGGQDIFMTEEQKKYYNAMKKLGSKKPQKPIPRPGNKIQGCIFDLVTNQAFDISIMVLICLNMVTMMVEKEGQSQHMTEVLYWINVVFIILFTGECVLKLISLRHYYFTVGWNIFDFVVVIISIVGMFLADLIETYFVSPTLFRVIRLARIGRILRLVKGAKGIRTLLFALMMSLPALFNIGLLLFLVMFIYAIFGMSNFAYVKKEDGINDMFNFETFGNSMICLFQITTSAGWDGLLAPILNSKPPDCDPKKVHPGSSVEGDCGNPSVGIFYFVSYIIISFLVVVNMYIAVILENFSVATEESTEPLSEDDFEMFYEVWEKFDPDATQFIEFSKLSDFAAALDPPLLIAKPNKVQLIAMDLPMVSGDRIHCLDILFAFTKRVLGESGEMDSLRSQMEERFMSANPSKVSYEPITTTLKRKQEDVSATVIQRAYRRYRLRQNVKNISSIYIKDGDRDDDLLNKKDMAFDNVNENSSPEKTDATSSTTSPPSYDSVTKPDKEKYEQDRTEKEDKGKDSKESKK
T2 sequence (Q9Y5Y9 whole entry): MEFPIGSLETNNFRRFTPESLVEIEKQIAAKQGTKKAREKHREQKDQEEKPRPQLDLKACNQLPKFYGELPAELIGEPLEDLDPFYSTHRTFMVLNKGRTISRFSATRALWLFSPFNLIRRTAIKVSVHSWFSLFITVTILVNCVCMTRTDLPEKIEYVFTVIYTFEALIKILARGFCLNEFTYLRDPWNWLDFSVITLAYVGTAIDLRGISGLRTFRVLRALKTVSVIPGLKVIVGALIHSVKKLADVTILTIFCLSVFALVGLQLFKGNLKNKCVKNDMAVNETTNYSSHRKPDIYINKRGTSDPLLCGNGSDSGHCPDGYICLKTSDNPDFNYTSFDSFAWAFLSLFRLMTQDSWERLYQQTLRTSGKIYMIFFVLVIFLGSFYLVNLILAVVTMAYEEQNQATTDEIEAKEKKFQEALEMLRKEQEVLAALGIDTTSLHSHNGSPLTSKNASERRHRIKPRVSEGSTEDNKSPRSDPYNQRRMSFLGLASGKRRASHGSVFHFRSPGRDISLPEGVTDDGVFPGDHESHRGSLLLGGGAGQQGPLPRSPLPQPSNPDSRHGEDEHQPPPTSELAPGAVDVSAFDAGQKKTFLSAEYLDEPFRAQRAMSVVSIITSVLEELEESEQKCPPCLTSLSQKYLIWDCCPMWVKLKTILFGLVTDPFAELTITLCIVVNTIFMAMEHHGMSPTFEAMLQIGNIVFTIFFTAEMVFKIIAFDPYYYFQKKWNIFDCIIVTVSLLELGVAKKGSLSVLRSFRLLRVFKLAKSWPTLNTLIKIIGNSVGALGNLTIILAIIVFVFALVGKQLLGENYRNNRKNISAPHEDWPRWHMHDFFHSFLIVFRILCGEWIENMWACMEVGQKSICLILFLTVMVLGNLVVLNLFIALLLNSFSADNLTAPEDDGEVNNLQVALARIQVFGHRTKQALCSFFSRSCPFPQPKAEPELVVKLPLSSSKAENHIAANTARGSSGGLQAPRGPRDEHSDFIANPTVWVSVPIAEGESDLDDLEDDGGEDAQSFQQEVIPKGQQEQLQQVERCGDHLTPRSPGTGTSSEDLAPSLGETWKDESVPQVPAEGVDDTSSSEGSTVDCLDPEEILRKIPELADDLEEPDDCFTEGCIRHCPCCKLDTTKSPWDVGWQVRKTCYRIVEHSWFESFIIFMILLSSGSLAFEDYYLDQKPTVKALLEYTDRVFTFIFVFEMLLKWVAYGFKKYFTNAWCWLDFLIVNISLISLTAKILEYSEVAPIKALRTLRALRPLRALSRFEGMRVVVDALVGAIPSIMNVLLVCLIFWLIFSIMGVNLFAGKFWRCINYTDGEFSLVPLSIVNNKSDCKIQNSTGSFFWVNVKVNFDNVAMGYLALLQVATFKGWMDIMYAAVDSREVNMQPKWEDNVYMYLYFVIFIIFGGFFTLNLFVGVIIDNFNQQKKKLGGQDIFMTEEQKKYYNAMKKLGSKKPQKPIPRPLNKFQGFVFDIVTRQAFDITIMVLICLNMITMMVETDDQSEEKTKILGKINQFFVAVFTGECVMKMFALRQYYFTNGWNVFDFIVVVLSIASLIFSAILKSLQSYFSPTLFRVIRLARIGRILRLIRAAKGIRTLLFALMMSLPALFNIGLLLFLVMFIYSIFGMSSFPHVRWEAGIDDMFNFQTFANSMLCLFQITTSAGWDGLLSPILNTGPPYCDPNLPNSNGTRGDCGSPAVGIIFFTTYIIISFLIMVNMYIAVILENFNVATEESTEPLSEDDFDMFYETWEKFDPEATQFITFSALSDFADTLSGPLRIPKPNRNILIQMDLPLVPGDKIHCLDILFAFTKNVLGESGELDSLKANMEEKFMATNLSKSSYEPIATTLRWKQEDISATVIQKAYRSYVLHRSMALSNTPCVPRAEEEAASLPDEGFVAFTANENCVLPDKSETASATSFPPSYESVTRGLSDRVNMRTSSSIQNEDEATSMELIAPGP

With `CN(C)c1cnc(F)c(CONC(=O)c2cncc(-c3ccc(OC(F)F)nc3)n2)c1` [Compound 80], the values for the IC50 in test [1] and in test [2] were over 1000 nM and 500 to 1000 nM, respectively.

Consider `COc1ccc(F)c(CONC(=O)c2cncc(-c3ccc(OCC4CNC4)cc3)n2)c1` [Compound 23, 6-(4-(azetidine-3-ylmethoxy)phenyl)-N-((2-fluoro-5-methoxybenzyl)oxy)pyrazine-2-carboxamide], for which the half-inhibitory concentration (IC50) in test [1] and in test [2] was over 1000 nM throughout.

As to `COc1ccc(F)c(CONC(=O)c2cncc(-c3ccc(OC4CN(C)C4)cc3)n2)c1` [Compound 25, N-((2-fluoro-5-methoxybenzyl)oxy)-6-(4-((1-methylazetidine-3-yl)oxy)phenyl)pyrazine-2-carboxamide], the results for the IC50 in test [1] and in test [2] were over 1000 nM and 500 to 1000 nM, respectively.

Consider `CCOc1ccc(-c2cncc(C(=O)NOCc3ccnn3CC)n2)cn1` [Compound 62, 6-(6-ethoxypyridine-3-yl)-N-((1-ethyl-1H-pyrazole-5-yl)methoxy)pyrazine-2-carboxamide], for which the IC50 in test [1] and in test [2] was over 1000 nM throughout.

On to `[2H]C([2H])([2H])Oc1ccc(F)c(CONC(=O)c2cncc(-c3ccc(OCC)nc3)n2)c1` [Compound 55, 6-(6-ethoxypyridine-3-yl)-N-((2-fluoro-5-(methoxy-d3)benzyl)oxy)pyrazine-2-carboxamide], for which the IC50 (usually the concentration that inhibits the measured activity by half) in test [1] was 500 to 1000 nM; in test [2], under 500 nM.

As for `CCOc1ccc(-c2cncc(C(=O)NOCc3cncc(OC)c3)n2)cn1` [Compound 36, 6-(6-ethoxypyridine-3-yl)-N-((5-methoxypyridine-3-yl)methoxy)pyrazine-2-carboxamide], the IC50 in test [1] is over 1000 nM; in test [2], under 500 nM.

On to `CCOc1ccc(-c2cncc(C(=O)NOCc3cc(OC)ccc3F)n2)c(C)c1` [Compound 86], for which the IC50 in test [1] is over 1000 nM; in test [2], under 500 nM.

As to `[2H]C([2H])([2H])Oc1ccc(F)c(CONC(=O)c2cncc(-c3ccc(OC([2H])([2H])C([2H])([2H])[2H])nc3)n2)c1` [Compound 53, 6-(6-(ethoxy-d5)pyridine-3-yl)-N-((2-fluoro-5-(methoxy-d3)benzyl)oxy)pyrazine-2-carboxamide], the IC50 in test [1] and in test [2] was over 1000 nM throughout.

Regarding `COc1ccc(F)c(CONC(=O)c2cncc(-c3ccc(OCC4CN(C)C4)cc3)n2)c1` [Compound 26, N-((2-fluoro-5-methoxybenzyl)oxy)-6-(4-((1-methylazetidine-3-yl)methoxy)phenyl)pyrazine-2-carboxamide], the half-inhibitory concentration (IC50) in test [1] was 500 to 1000 nM; in test [2] it was under 500 nM.

With `CCOc1ccc(-c2cncc(C(=O)NOCc3c[nH]nc3C)n2)cn1` [Compound 69, 6-(6-ethoxypyridine-3-yl)-N-((3-methyl-1H-pyrazole-4-yl)methoxy)pyrazine-2-carboxamide], the IC50 in test [1] and in test [2] was over 1000 nM throughout.

`CCOc1ccc(-c2cncc(C(=O)NOCc3cccn3C)n2)cn1` [Compound 60, 6-(6-ethoxypyridine-3-yl)-N-((1-methyl-1H-pyrrole-2-yl)methoxy)pyrazine-2-carboxamide]: the IC50 in test [1] is 500 to 1000 nM; in test [2], under 500 nM.
